ChEMBL document CHEMBL3507680, “University of Dundee, Gates Library screen for HepG2 cell viability”

Assay: Human HepG2 cell viability assay in 384 well format
Format: toxicity, cell-based
Design: dose 125 nL, time 70.5 hour; concentration not given beside the values
Conditions: HepG2 cells, read-out: Inhibition

Row | Structure (SMILES) | cytotoxicity at 70.5 h [%]
1 | Cc1nsc(N2CCN(CC(=O)N(C3CC3)C(C)C3CC3)CC2)n1 (stereo not given) | 13.6
2 | CCn1nc(C)cc1C(=O)OCC1CC(=O)N(Cc2ccccc2)C1 (stereo not given) | 0.617
3 | Cc1cnn(C2CN(CCOc3ccccc3C#N)C2)c1 | -4.34
4 | CCOc1cc(Cl)ccc1CNC(=O)c1ccc(=O)n(C)c1 | 11.4
5 | CCCS(=O)(=O)N1CCCN(CCCOC)CC1 | 8.01
6 | CC(C)Cn1ncc(C(=O)NS(=O)(=O)c2ccccc2)c1C1CC1 | -8.45
7 | O=C(CNC(=O)c1ccccc1Cl)Nc1nccs1 | 1.89
8 | NC(=O)Cn1c(SCc2noc(-c3ccsc3)n2)nnc1C1CC1 | -1.96
9 | COCCCC(=O)NCc1cccc(NC(N)=O)c1 | -3.29
10 | COc1cc(Cl)ccc1C(=O)NCC(=O)Nc1nccs1 | -5.69
11 | CCOCCCC(=O)Nc1[nH]nc(-c2ccncc2)c1C | -9.37
12 | NC(=O)N1CCCC(C(=O)Nc2cccc(Cl)c2)C1 (stereo not given) | -8.06
13 | COC(=O)c1oc(CNC(C)(C)CO)cc1C | -5.24
14 | Cc1noc(C)c1CS(=O)(=O)CC(=O)NCCc1cccs1 | 15.1
15 | CNS(=O)(=O)c1ccccc1N1CCN(C(=O)C(C)C)CC1 | -5.83
16 | CN(C)C(=O)COc1ccccc1CNC1CCc2ncnn2C1 (stereo not given) | -6.71
17 | CC(C)(C)CC(=O)NCC(=O)NS(=O)(=O)c1cccnc1 | 2.71
18 | COC(=O)N(C)CCCC(=O)Nc1[nH]nc(-c2ccncc2)c1C | -2.11
19 | O=C(CNC(=O)c1cc(Cl)ccn1)Nc1nccs1 | -4.32
20 | COc1cccc(COCC(=O)NC(C(N)=O)c2ccccc2F)c1 (stereo not given) | 12

Row | Structure (SMILES) | cytotoxicity at 70.5 h [%]
21 | NC(=O)C(NC(=O)COCCc1ccccc1)c1ccccc1F (stereo not given) | 5.16
22 | OCCN(Cc1cccnc1)c1ncc(Br)cn1 | -2
23 | Cc1cc(C(=O)NCC(O)CN2CCCC2=O)ccc1F (stereo not given) | -4.58
24 | CCn1nc2c(cc1=O)CN(CCOc1cccc(C#N)c1)CC2 | -3.93
25 | Cc1cc(C2CCCN(C(=O)COc3cc(F)ccc3F)C2)n[nH]1 (stereo not given) | 3.52
26 | COC(=O)c1oc(CNC(C)(C)c2ccc3c(c2)OCO3)cc1C | 19.5
27 | CN(Cc1ncnn1C)C(=O)CCn1ccc2ccccc21 | -7.59
28 | O=C1CC2(CCSC2)C(=O)N1CCCc1ccccc1 (stereo not given) | -5.63
29 | CCOC(=O)C(C)NC(=O)CCSc1ccc(F)cc1 (stereo not given) | -2.94
30 | COCCN(C)CC1CCCN1S(=O)(=O)c1cccc(F)c1F (stereo not given) | -4.32
31 | Cc1cc2n(n1)CC(CNC1CCN(Cc3ccncc3)CC1)CN2 (stereo not given) | -0.58
32 | CCc1cccc(NS(=O)(=O)c2cc(C)c(C(=O)O)s2)c1 | 0.535
33 | Cc1cc2n(n1)CC(CNC1CCN(Cc3ccccn3)CC1)CN2 (stereo not given) | -6.35
34 | N#Cc1cccc(CNC(=O)NC2CCN(CC(F)F)CC2)c1 | 17.7
35 | CC(C)c1noc(CCC(=O)NC(C)c2nnc3n2CCC3)n1 (stereo not given) | 0.884
36 | CC(C)c1noc(CCCC(=O)NC(C)c2nnc3n2CCC3)n1 (stereo not given) | -4.68
37 | CC(C)NC(=O)Nc1ccccc1CN1CCOCC1 | -5.87
38 | COc1ccnc(N2CCN(C(=O)c3cnc(C4CC4)s3)CC2)n1 | -5.21
39 | CCS(=O)(=O)N1CCC(NCC2CNc3cc(C)nn3C2)CC1 (stereo not given) | 19.2
40 | Cc1cc(S(=O)(=O)Nc2cccc(OC(F)F)c2)sc1C(=O)O | 16.4

Row | Structure (SMILES) | cytotoxicity at 70.5 h [%]
41 | CC(C)COCC(C)NC(=O)NCc1cccc(-n2cncn2)c1 (stereo not given) | -2.93
42 | Cc1ccccc1C(=O)NC1CCN(c2cnn(C)c2)C1=O (stereo not given) | -4.47
43 | Cc1nc(CN2CCC(CNC(=O)NCCC3CCC3)CC2)oc1C | 0.076
44 | Cc1c(CNC(=O)NCc2cccc(-n3cncn3)c2)cnn1C | -5.57
45 | CCC(CC)c1cc(CNC(=O)N2CCCC(c3ncc[nH]3)C2)on1 (stereo not given) | 0.2
46 | CCN1CCN(c2ccc(F)cc2C(C)NCc2nc(C)no2)CC1 (stereo not given) | -0.791
47 | CCC(CC)c1cc(CNC(=O)N2CCC[C@@H]2CO)on1 | 15.7
48 | CCC(CC)c1cc(CNC(=O)N2CCC(CO)CC2)on1 | -4.82
49 | CC(C)C(O)C(C)(C)CNC(=O)NCc1ccc(-n2cncn2)cc1 (stereo not given) | -1.82
50 | COc1c(CNC2CCOc3ccccc32)c(C)nn1C (stereo not given) | -4.19
51 | c1cc(CNCc2ccnc(N3CCCCC3)c2)c2c(c1)OCCCO2 | -10.6
52 | CCN(CC(=O)NC(C)C)S(=O)(=O)N1CCCC(C)C1 (stereo not given) | -1.39
53 | O=C1CC2(CCCC2)C(=O)N1CC(O)COCc1ccccc1F (stereo not given) | 12.5
54 | Cc1ccc(-c2ccsc2C(=O)NC2CCS(=O)(=O)C2)cc1 (stereo not given) | -3.7
55 | O=C(NC1CCS(=O)(=O)C1)c1ccc(-c2ccc(F)cc2)s1 (stereo not given) | -0.198
56 | COc1cc(C(=O)O)ccc1OCC(=O)NC(C)c1ccc(F)cc1 (stereo not given) | -5.08
57 | COc1ccc(C(=O)O)c(OCC(=O)NC(C)c2ccccc2)c1 (stereo not given) | -5.77
58 | COc1c(CNC2CCOc3c(F)cccc32)c(C)nn1C (stereo not given) | -3.45
59 | c1cc(CNCc2ccc(-n3cncn3)nc2)cc(OC2CCCC2)c1 | -6.11
60 | COc1c(CNC2CCCOc3ccc(F)cc32)c(C)nn1C (stereo not given) | -2.26
